The values that follow come from EP1019398B1, “BENZO(5,6)CYCLOHEPTA(1,2-B)PYRIDINE DERIVATIVES USEFUL FOR INHIBITION OF FARNESYL PROTEIN TRANSFERASE” (SCHERING CORPORATION, priority 1997, dated 1998).

One may read the IC50 as the point on the concentration scale where inhibition reaches its midpoint. A lower IC50 goes with greater potency in that assay.

Assay [1] concerns COS Cell. The experiment in a line: COS Cell IC50 (Cell-Based Assay), procedure of WO 95/10516. Conditions: one range stated for the listed examples. Here is the method: FPT IC50 (inhibition of farnesyl protein transferase. in vitro enzyme assay) and COS Cell IC50 (Cell-Based Assay) were determined following the assay procedures described in WO 95/10516, published April 20. 1995. GGPT IC50 (inhibition of geranylgeranyl protein transferase, in vitro enzyme assay). Cell Mat Assay, and anti-tumor activity (in vivo anti-tumor studies) could be determined by the assay procedures described in WO 95/10516. The disclosure of WO 95/10516 is incorporated herein by reference thereto.

For assay [2], the system named is Human tumor cells. The assay can be described thus: Soft Agar Assay (anchorage-independent growth, colony count after MTT staining). It counts as cell-based. The settings on record: 0.3% agarose top layer over 0.6% agarose, 10-16 days at 37°C under 5% CO2. Here is the method:
Anchorage-independent growth is a characteristic of tumorigenic cell lines. Human tumor cells can be suspended in growth medium containing 0.3% agarose and an indicated concentration of a farnesyl transferase inhibitor. The solution can be overlayed onto growth medium solidified with 0.6% agarose containing the same concentration of farnesyl transferase inhibitor as the top layer. After the top layer is solidified, plates can be incubated for 10-16 days at 37°C under 5% CO2 to allow colony outgrowth. After incubation, the colonies can be stained by overlaying the agar with a solution of MTT (3-[4,5-dimethylthiazol-2-yl]-2,5-diphenyltetrazolium bromide, Thiazolyl blue) (1 mg/mL in PBS). Colonies can be counted and the IC50's can be determined.

As to `O=C(CC1CCSCC1)N1CCC([C@H]2c3ncc(Br)cc3CCc3cc(Cl)cc(Br)c32)CC1` [Example 5], in assay [1], the 50% inhibitory concentration (IC50) lay in the range of 1.8 to 143 nM.
In the case of `O=C(CC1CCOCC1)N1CCC(C2c3c(Br)cc(Cl)cc3CCc3cc(Br)c[n+]([O-])c32)CC1` (centres unmarked) [Example 40], the IC50 in assay [1] is 1.8 to 143 nM; in assay [2], 8 nM.
In turn, `O=C(C=C1CCOCC1)N1CCC([C@H]2c3ncc(Br)cc3CCc3cc(Cl)cc(Br)c32)CC1` [Example 2] displayed an IC50 in assay [1] of 1.8 to 143 nM.
In assay [1], `O=C(CN1CCSCC1)N1CCC([C@H]2c3ncc(Br)cc3CCc3cc(Cl)cc(Br)c32)CC1` [Example 37] gave a half-maximal inhibitory concentration (IC50) of 1.8 to 143 nM.
For the compound `O=C(CC1CCCCO1)N1CCC([C@H]2c3ncc(Br)cc3CCc3cc(Cl)cc(Br)c32)CC1` (some centres unmarked) [Example 8], in assay [1], the IC50 fell in the range of 1.8 to 143 nM.
The compound `O=C(CN1CC[S+]([O-])CC1)N1CCN(C2c3ccc(Cl)c(Br)c3CCc3cc(Br)cnc32)CC1` (single isomer, unassigned) [Example 39] returned a half-inhibitory concentration (IC50) in assay [1] of 1.8 to 143 nM.
Consider `O=C(CC1CCOCC1)N1CCC([C@H]2c3ncc(Br)cc3CCc3cc(Cl)cc(Br)c32)CC1` [Example 1], for which the IC50 in assay [1] was 1.8 to 143 nM.
